Where two headings read alike, the source gives them in different places.
Experiments:
[1] = target: EGFR in Baf3-19del-T790M-C797S (Homo sapiens, UniProt P00533, C797S/DEL746-750/T790M); assay: EGFR PROTAC HTRF experiment (total EGFR degradation); type: cell-based
Description: (§1) [table] Among them, B[…] -C797S (abbreviated as Baf3-DTC) is a stable Ba/F3 clone expressing exogenous EGFR gene bearing T790M, C797S and […] triple amino acid mutations, purchased from KYinno; Baf3-L858R-T790M - C797S (abbreviated as Baf3-LTC) is a stable Ba/F3 clone expressing exogenous EGFR gene bearing […], T790M, C797S triple mutations, purchased from KYinno. [table] [table] Dilutded Eu and d2 antibodies 2μl per well with detection buffer 20-fold. Then mixed the two antibody vials thoroughly. [table] Opened EnVision , locate the HTRF program, configured the board, and then read […]. The fitted curve, DC50 and Dmax of this compound could be generated using GraphPad Prism .

[2] = target: EGFR in Baf3-L858R-T790M-C797S (Homo sapiens, UniProt P00533, C797S/L858R/T790M); assay: as above; type: cell-based
Description: as §1

[3] = tested on: Baf3-19del- T790M -C797S (Baf3-DTC); assay: Cell anti-proliferation experiment (CTG); type: cell-based; conditions: class symbol
Description: (§2) H1975 has an EGFR: T790M/L858R double mutation, PC-9 has an EGFR exon 19 deletion, and HCC827 has an exon 19 deletion mutation. Baf3-19del- T790M -C797S (Baf3-DTC) is a stable Ba/F3 clone expressing exogenous EGFR gene bearing T790M, C797S, and […] triple amino acid mutations, purchased from KYinno. Baf3-L858R-T790M - C797S (Baf3-LTC) is a stable Ba/F3 clone expressing exogenous EGFR gene bearing […], T790M, and C797S triple mutations, purchased from KYinno. A549 is a wild-type EGFR, purchased from Nanjing Kebai Biotechnology. A431 is a wild-type EGFR, purchased from Shanghai Xinyu Biotechnology. CellCounting-Lite2.0, Trypsin EDTA, 37°C CO2 incubator, cell counter, EnVision Serial No. 1050454.
(§3) • A) Digested logarithmic phase cells with Trypsin EDTA, added culture medium to stop the reaction, and mixing well with a pipette to prepare a cell suspension. • B) Used Vi-cell to determine cell concentration, and prepared a suspension of 15,000-25,000 cells per milliliter according to the experimental purpose and cell characteristics. • C) After prepared the cell suspension, mixed it gently and added 100 µL to each well, so that the cell density to be tested is 1500-2500 per well.
(§4) • A) Weighed approximately 2 mg the compound and calculated the required volume of DMSO according to the formula: Compound mass (mg) * Compound purity (%) / Compound molecular weight * 1000. • B) Placed the inoculated cell culture plate into an incubator and incubated for about 24 hours. Then added compounds of varying concentrations. • C) Diluted the 10mM compound stock solution to […] with culture medium, and added the […] compound solution to the second column of the deep well plate in sequence, and added […] culture medium containing 0.5% DMSO to the third to eleventh columns. • D) Gradient dilution: Taked 125 µL solution from the second column and added it to the third column, mix well; then taked 125 µL solution from the third column and added it to the fourth column, repeated this operation until the tenth column. • E) Used a multichannel pipette, aspirated 25 µL the compound from the deep-well plate and added it to a 96-well culture plate. Repeated this process three times for each compound on the 96-well plate. This will ultimately create a concentration gradient of up to 10,000 nM at a 1:4 ratio on the 96-well plate.
(§5) • A) The effects of the compound were observed under an inverted microscope after the 96-well plate was incubated in an incubator for 72 hours. • B) Added 25 µL CTG solution to each well, placed on a shaker for 10 minutes, and read the […] of each well.
(§6) Calculate the % Cell Viability using the following formula: %Cell Viability = 100% × (Lum_Sample−Lum_LC)/(Lum_HC−Lum_LC) [formula] • Lum_HC: Cell readings from the 0.1% DMSO control group • Lum_Sample: Cell readings with added compound • Lum_LC: Blank culture medium reading
(§7) The IC50 value was obtained by curve fitting using GraphPad Prism 8 software.

PC-9 = assay: Cell anti-proliferation experiment (CTG); type: cell-based; conditions: Homo sapiens, PC-9 (EGFR exon 19 deletion), class symbol
Description: as §2, §3, §4, §5, §6, §7

H1975 = assay: Cell anti-proliferation experiment (CTG); type: cell-based; conditions: Homo sapiens, H1975 (EGFR T790M/L858R), class symbol
Description: as §2, §3, §4, §5, §6, §7

[4] = tested on: Baf3-L858R-T790M - C797S (Baf3-LTC); assay: Cell anti-proliferation experiment (CTG); type: cell-based; conditions: class symbol
Description: as §2, §3, §4, §5, §6, §7

HCC827 = assay: Cell anti-proliferation experiment (CTG); type: cell-based; conditions: Homo sapiens, HCC827 (exon 19 deletion), class symbol
Description: as §2, §3, §4, §5, §6, §7

A431 = assay: Cell anti-proliferation experiment (CTG); type: cell-based; conditions: Homo sapiens, A431 (wild-type EGFR), class symbol
Description: as §2, §3, §4, §5, §6, §7

A549 = assay: Cell anti-proliferation experiment (CTG); type: cell-based; conditions: Homo sapiens, A549 (wild-type EGFR), class symbol
Description: as §2, §3, §4, §5, §6, §7

[5] = Pharmacokinetic tests in male SD rats; type: in vivo; conditions: oral gavage (po), 10 mg/kg, plasma
Description: Three healthy adult male SD rats, 6-8 weeks old, weighing 200-300 grams.
EDTA-Na2 anticoagulant, weighed 11.2 g EDTA-Na2 and placed it in a reagent bottle. Added 100 mL physiological saline and shaked to dissolve completely. After preparation, dispensed into 1.5 mL centrifuge tubes, each containing approximately 20 µL, for whole blood sample collection.
Accurately weighed approximately 10 mg the sample to be tested, added 10% of the converted total volume of DMSO to dissolve it, and then slowly added 90% of the total volume of 0.5% MC solvent while stirring. Sonicated and vortex to mix thoroughly to obtain a solution of the preparation that is considered to be homogeneous, with a concentration of 1 mg/mL. Prepared fresh immediately before use.
Piped 0.2 mL the sample into a 1.5 mL centrifuge tube and store at -80°C for analysis of the concentration of the drug solution.
Animals were housed in rat cages and fasted for at least 10 hours starting the day before the experiment, but water was allowed. On the day of the experiment, each animal was weighed and marked on its tail. Blank blood samples were collected before drug administration. Blood was collected via tail vein.
• Route of administration: Oral gavage (po); • Dosage concentration: 1 mg/ml; • Dosage: 10 mg/kg; • Dosage volume: 10 mL/kg; • Procedure: Hold the rat upright with your left hand wearing a bite-proof glove, insert the gavage needle into the throat through the mouth, and insert the needle when feeling no obvious resistance. Then inject the drug into the stomach.
Whole blood (0.1-0.2 ml) was collected from test animals at 0.5 h, 1 h, 2 h, 4 h, 6 h, 8 h, 12 h, and 24 h after drug administration. The samples were placed in EDTA-Na 2 anticoagulant tubes, inverted 3-4 times to mix, and centrifuged at 4°C, 2000 g for 5 min to separate the supernatant plasma. The plasma was promptly transferred to -80°C for storage until analysis. Blood was collected via tail vein.
A quantitative detection method for the analyte was established using Shimadzu liquid chromatography and Triple Quad™ 6500+AB mass spectrometry. The concentration of the parent drug in plasma was analyzed. The analytical results were controlled for variation using quality control samples, with the accuracy of the quality control samples expected to be between 80% and 120%.
The main pharmacokinetic parameters were calculated using a non-compartmental model in Winnonlin Phoenix software. These parameters included the area under the curve (AUC(0-t) and AUC(0-∞)), elimination half-life (T1/2), maximum plasma concentration (Cmax ), and time to reach maximum plasma concentration (Tmax).The results are shown in Table 3.

[6] = Baf3-DTC, incubated 16 hours, HTRF total EGFR; read-out: Baf3-DTC DC50
[7] = Baf3-DTC, incubated 16 hours, HTRF total EGFR; read-out: Baf3-DTC Dmax
[8] = Baf3-LTC, incubated 16 hours, HTRF total EGFR; read-out: Baf3-LTC DC50
[9] = Baf3-LTC, incubated 16 hours, HTRF total EGFR; read-out: Baf3-LTC Dmax

Chain of EGFR in Baf3-L858R-T790M-C797S (P00533 25-1210 T790M/C797S/L858R): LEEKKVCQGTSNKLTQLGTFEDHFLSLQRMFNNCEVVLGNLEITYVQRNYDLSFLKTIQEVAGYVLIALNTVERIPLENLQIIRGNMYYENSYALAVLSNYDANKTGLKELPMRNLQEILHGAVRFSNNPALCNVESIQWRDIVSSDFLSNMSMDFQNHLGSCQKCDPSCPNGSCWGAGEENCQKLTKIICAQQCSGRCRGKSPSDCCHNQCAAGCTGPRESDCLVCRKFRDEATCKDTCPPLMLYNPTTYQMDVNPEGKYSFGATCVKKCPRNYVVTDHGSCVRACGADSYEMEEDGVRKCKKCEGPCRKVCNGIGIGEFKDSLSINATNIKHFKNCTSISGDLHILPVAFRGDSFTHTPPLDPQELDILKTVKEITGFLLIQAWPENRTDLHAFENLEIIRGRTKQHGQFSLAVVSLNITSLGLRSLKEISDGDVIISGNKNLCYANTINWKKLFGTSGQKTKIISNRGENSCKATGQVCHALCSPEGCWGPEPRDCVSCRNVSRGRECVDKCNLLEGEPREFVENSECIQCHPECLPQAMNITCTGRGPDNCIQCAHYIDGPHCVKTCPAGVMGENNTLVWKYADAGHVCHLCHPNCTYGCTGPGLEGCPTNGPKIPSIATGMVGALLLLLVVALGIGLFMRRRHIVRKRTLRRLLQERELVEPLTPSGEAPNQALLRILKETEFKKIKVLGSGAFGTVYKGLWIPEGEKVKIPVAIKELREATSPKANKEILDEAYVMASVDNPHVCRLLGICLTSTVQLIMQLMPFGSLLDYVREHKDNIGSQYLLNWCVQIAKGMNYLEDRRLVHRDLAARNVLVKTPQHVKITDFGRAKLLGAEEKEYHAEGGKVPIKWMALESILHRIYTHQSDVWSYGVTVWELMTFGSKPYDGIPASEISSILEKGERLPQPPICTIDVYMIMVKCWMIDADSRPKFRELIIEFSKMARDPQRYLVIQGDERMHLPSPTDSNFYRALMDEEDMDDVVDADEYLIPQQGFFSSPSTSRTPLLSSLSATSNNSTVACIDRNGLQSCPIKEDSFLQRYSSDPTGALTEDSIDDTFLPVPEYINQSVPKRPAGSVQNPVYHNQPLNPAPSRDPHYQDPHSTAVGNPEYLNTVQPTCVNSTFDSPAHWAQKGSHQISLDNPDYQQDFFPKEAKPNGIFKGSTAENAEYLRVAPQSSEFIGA
Chain of EGFR in Baf3-19del-T790M-C797S (P00533 with tags, fused parts or gaps DEL746-750/T790M/C797S): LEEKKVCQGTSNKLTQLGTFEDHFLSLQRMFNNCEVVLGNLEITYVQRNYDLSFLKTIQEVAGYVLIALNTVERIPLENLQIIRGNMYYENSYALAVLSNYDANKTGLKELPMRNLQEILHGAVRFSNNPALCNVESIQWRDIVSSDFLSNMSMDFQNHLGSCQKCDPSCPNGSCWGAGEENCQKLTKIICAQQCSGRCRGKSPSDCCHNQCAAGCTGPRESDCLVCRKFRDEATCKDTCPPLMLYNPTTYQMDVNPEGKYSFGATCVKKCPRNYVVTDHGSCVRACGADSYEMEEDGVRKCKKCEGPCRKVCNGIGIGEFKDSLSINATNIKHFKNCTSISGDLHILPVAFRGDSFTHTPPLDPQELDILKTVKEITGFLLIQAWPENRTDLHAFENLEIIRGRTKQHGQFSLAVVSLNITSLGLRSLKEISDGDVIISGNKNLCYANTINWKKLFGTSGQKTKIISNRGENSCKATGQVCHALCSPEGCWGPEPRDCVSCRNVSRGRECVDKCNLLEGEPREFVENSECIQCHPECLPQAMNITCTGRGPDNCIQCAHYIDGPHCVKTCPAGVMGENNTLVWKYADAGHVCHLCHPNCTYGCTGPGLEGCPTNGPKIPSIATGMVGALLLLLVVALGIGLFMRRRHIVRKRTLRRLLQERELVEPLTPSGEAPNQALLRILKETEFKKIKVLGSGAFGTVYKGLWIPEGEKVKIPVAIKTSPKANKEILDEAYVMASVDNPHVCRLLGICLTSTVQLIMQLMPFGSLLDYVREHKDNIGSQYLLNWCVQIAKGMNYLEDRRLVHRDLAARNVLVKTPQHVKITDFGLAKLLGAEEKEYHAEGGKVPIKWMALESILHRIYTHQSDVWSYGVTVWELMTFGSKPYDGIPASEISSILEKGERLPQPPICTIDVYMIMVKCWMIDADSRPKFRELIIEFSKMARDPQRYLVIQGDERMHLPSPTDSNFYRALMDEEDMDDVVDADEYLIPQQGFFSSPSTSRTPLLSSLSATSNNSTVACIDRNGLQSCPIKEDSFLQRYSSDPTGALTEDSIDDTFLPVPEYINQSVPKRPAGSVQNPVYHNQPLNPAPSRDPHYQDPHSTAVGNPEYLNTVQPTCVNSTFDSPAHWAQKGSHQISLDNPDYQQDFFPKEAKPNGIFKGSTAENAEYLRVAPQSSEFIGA

CCc1cc(Nc2ncc(Cl)c(Nc3ccccc3P(C)(C)=O)n2)c(OC)cc1N1CCN(C(=O)CN2CCC(c3cc4c(cc3F)c(N3CCC(=O)NC3=O)nn4C)C(F)(F)C2)[C@@H](C)C1 (stereo partly shown) [TA-025]
DC50 [1, 6]: 10 to 100 nM
Dmax [1, 7]: 70 to 100%
DC50 [2, 8]: 10 to 100 nM
Dmax [2, 9]: 70 to 100%

CCc1cc(Nc2ncc(Br)c(Nc3ccccc3P(C)(C)=O)n2)c(OC)cc1N1CC2(CCN(C(=O)CN3CCC(c4cc5c(cc4F)c(N4CCC(=O)NC4=O)nn5C)C(F)(F)C3)CC2)C1 (stereo not shown) [TC-164]
DC50 ([1]; read-out: Baf3-DTC DC50; Baf3-DTC, incubated 16 hours, HTRF total EGFR): < 10 nM
Dmax ([1]; read-out: Baf3-DTC Dmax): 70 to 100%
DC50 ([2]; read-out: Baf3-LTC DC50; Baf3-LTC, incubated 16 hours, HTRF total EGFR): < 10 nM
Dmax ([2]; read-out: Baf3-LTC Dmax): 70 to 100%
IC50 ([3]; 72 hours): < 10 nM
IC50 (PC-9; 72 hours): 100 to 1000 nM
IC50 (H1975; NCI-H1975, 72 hours): < 10 nM
IC50 ([4]; 72 hours): < 10 nM
IC50 (HCC827; 72 hours): 10 to 100 nM
IC50 (A431; A-431, 72 hours): > 1000 nM
IC50 (A549; 72 hours): > 1000 nM

CCc1cc(Nc2ncc(Cl)c(Nc3ccc(Cl)cc3C(C)(C)O)n2)c(OC)cc1N1CCN(C(=O)CN2CCC(c3cc4c(cc3F)c(N3CCC(=O)NC3=O)nn4C)C(F)(F)C2)CC1 (stereo not shown) [TA-009]
DC50 [1, 6]: 100 to 1000 nM
Dmax [1, 7]: 70 to 100%
DC50 [2, 8]: 100 to 1000 nM
Dmax [2, 9]: 70 to 100%

CCc1ccc(Nc2nc(Nc3cc(CC)c(N4CCN(C(=O)CN5CCC(c6cc7c(cc6F)c(N6CCC(=O)NC6=O)nn7C)C(F)(F)C5)CC4)cc3OC)ncc2Cl)c(P(C)(C)=O)c1 (stereo not shown) [TA-035]
DC50 [1, 6]: 10 to 100 nM
Dmax ([1]; read-out: Baf3-DTC Dmax): 70 to 100%
DC50 [2, 8]: 10 to 100 nM
Dmax ([2]; read-out: Baf3-LTC Dmax): 70 to 100%

CCc1cc(Nc2ncc(Br)c(Nc3ccccc3P3(=O)CCCC3)n2)c(OC)cc1N1CC2(CCN(C(=O)CN3CCC(c4cc5c(cc4F)c(N4CCC(=O)NC4=O)nn5C)C(F)(F)C3)CC2(F)F)C1 (stereo not shown) [TB-010]
DC50 [1, 6]: < 10 nM
Dmax [1, 7]: 70 to 100%
DC50 [2, 8]: < 10 nM
Dmax [2, 9]: 70 to 100%
HL [5]: 3.59 h
AUC(0-inf) ([5]; rat): 5800 ng·h/mL
AUC(0-t) ([5]; rat): 5730 ng·h/mL
Cmax ([5]; rat): 482 ng/mL
MRT last ([5]; rat): 6.6 h
Tmax ([5]; rat): 4 h
IC50 ([3]; 72 h): 10 to 100 nM
IC50 (PC-9; PC-9, 72 h): 100 to 1000 nM
IC50 (H1975; NCI-H1975, 72 h): < 10 nM
IC50 ([4]; 72 h): 10 to 100 nM
IC50 (HCC827; HCC827, 72 h): 10 to 100 nM
IC50 (A431; A-431, 72 h): > 1000 nM
IC50 (A549; A549, 72 h): > 1000 nM
